Results from PubChem BioAssay (NCI).
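Compound exposure: 48 hours, 5 concentrations, 96-well plates. GI50 = concentration required for 50% inhibition of growth. At the TGI there is no net growth.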 *1 amine or outer side, *2 acyl side, *3 side chain or, on linkers, in order; H or OH if unused. Where a SMILES comes first, the peptide text is derived from it. [ ]: non-standard residue; d: D form. ξ: configuration not given here. X21 = CC[C@@H](C)C(N[*:1])C(=O)[*:2]; ξR = N=C(N)NCCCC(N)C(=O)O; ξI = CCC(C)C(N)C(=O)O; ξL = CC(C)CC(N)C(=O)O; ξK = NCCCCC(N)C(=O)O; ξV = CC(C)C(N)C(=O)O; ξA = CC(N)C(=O)O

Legend:
Assay in all cases: growth of human tumour cells (NCI), 48 h
PC-3 prostate = tested on: PC-3 prostate
NCI/ADR-RES ovarian = tested on: NCI/ADR-RES ovarian
MDA-MB-435 = tested on: MDA-MB-435
NCI-H23 lung = tested on: NCI-H23 lung
SK-MEL-28 melanoma = tested on: SK-MEL-28 melanoma
A498 renal = tested on: A498 renal
MCF7 breast = tested on: MCF7 breast
A549 NSCLC = tested on: A549 NSCLC
SNB-19 CNS = tested on: SNB-19 CNS
OVCAR-8 ovarian = tested on: OVCAR-8 ovarian

## CCOC(=O)Nc1nc2c(C)cccc2s1
PC-3 prostate
  GI50: 48.9 µM
  TGI: > 100 µM
NCI/ADR-RES ovarian
  GI50: 38.9 µM
  TGI: > 100 µM
MDA-MB-435
  GI50: 48.9 µM
  TGI: > 100 µM
NCI-H23 lung
  GI50: 38.8 µM
  TGI: > 100 µM
SK-MEL-28 melanoma
  GI50: > 100 µM
  TGI: > 100 µM
A498 renal
  GI50: 11.7 µM
  TGI: 54.8 µM
MCF7 breast
  GI50: 29.2 µM
  TGI: > 100 µM
A549 NSCLC
  GI50: 43.9 µM
  TGI: > 100 µM
SNB-19 CNS
  GI50: > 100 µM
  TGI: > 100 µM
OVCAR-8 ovarian
  GI50: 52.8 µM
  TGI: > 100 µM

## CCC(C)C1NC(=O)C(CC(C)C)NC(=O)C(C)NC(=O)C(C(C)C)NC(=O)C(CCCCN)NC(=O)C(CC(C)C)NC(=O)C(C(C)C)NC(=O)[C@H](C)NC(=O)C(C(C)CC)NC(=O)C(CCCN=C(N)N)NC(=O)C(CCCCN)NC(=O)C(CCCN=C(N)N)NC(=O)C(CCCCN)NC(=O)C([C@H](C)CC)NC(=O)C(CCCCN)NC1=O (stereo not given in full) (cyclo(A[ξV][ξL][ξK][ξV][ξA][ξL][ξI][ξK][X21][ξK][ξR][ξK][ξR][ξI]))
PC-3 prostate
  GI50: 0.701 µM
  TGI: 4.85 µM
NCI/ADR-RES ovarian
  GI50: 1.06 µM
  TGI: 3.84 µM
MDA-MB-435
  GI50: 1.51 µM
  TGI: 3.33 µM
NCI-H23 lung
  GI50: 0.43 µM
  TGI: 2.22 µM
SK-MEL-28 melanoma
  GI50: 1.82 µM
  TGI: 4.34 µM
A498 renal
  GI50: 1.15 µM
  TGI: 2.82 µM
MCF7 breast
  GI50: 1.54 µM
  TGI: 5.65 µM
A549 NSCLC
  GI50: 1.48 µM
  TGI: 4.41 µM
SNB-19 CNS
  GI50: 2.07 µM
  TGI: 10.1 µM
OVCAR-8 ovarian
  GI50: 1.48 µM
  TGI: 4.87 µM

## COc1ccc(/C=C/NC=O)cc1
PC-3 prostate
  TGI: > 100 µM
NCI/ADR-RES ovarian
  TGI: > 100 µM
MDA-MB-435
  TGI: > 100 µM
NCI-H23 lung
  TGI: > 100 µM
SK-MEL-28 melanoma
  TGI: > 100 µM
A498 renal
  TGI: > 100 µM
MCF7 breast
  TGI: > 100 µM
A549 NSCLC
  TGI: > 100 µM
SNB-19 CNS
  TGI: > 100 µM
OVCAR-8 ovarian
  TGI: > 100 µM

## O=C(Nc1ccccc1)Nc1cccc(Oc2nnc(Cl)c3ccccc23)c1
PC-3 prostate
  GI50: 3.26 µM
  TGI: 10.6 µM
NCI/ADR-RES ovarian
  GI50: 2.63 µM
  TGI: 6.39 µM
MDA-MB-435
  GI50: 7.54 µM
  TGI: > 25 µM
NCI-H23 lung
  GI50: 3.72 µM
  TGI: 9.44 µM
SK-MEL-28 melanoma
  GI50: 3.57 µM
  TGI: 12.7 µM
A498 renal
  GI50: 3.45 µM
  TGI: 13.1 µM
MCF7 breast
  GI50: 1.32 µM
  TGI: 6.32 µM
A549 NSCLC
  GI50: 3.47 µM
  TGI: 18.4 µM
SNB-19 CNS
  GI50: 1.67 µM
  TGI: 8.46 µM
OVCAR-8 ovarian
  GI50: 2.6 µM
  TGI: 6.53 µM

## OCc1ccc(N(CCN2CCCC2)Cc2ccc(F)cc2)cc1Cl
PC-3 prostate
  GI50: 15.6 µM
  TGI: 37 µM
NCI/ADR-RES ovarian
  GI50: 18.2 µM
  TGI: 44.3 µM
MDA-MB-435
  GI50: 15.9 µM
  TGI: 32.8 µM
NCI-H23 lung
  GI50: 32.4 µM
  TGI: > 100 µM
SK-MEL-28 melanoma
  GI50: 15.9 µM
  TGI: 30.2 µM
A498 renal
  GI50: 1.97 µM
  TGI: 11.9 µM
MCF7 breast
  GI50: 13.7 µM
  TGI: 32.1 µM
A549 NSCLC
  GI50: 6.5 µM
  TGI: 27.9 µM
SNB-19 CNS
  GI50: 25 µM
  TGI: 82.1 µM
OVCAR-8 ovarian
  GI50: 14 µM
  TGI: 30.3 µM

## Fc1ccc2[nH]cc(SSc3c[nH]c4ccc(F)cc34)c2c1
PC-3 prostate
  GI50: 0.861 µM
  TGI: 12 µM
NCI/ADR-RES ovarian
  GI50: 7.1 µM
  TGI: > 100 µM
MDA-MB-435
  GI50: 4.62 µM
  TGI: 21.5 µM
NCI-H23 lung
  GI50: 16.7 µM
  TGI: 77.5 µM
SK-MEL-28 melanoma
  GI50: 5.71 µM
  TGI: 20.3 µM
A498 renal
  GI50: 3.61 µM
  TGI: 14.4 µM
MCF7 breast
  GI50: 3.87 µM
  TGI: 20 µM
A549 NSCLC
  GI50: 4.98 µM
  TGI: 87.7 µM
SNB-19 CNS
  GI50: 5.21 µM
  TGI: 22.1 µM
OVCAR-8 ovarian
  GI50: 5.73 µM
  TGI: 42.8 µM
